Assay results: ChEMBL document CHEMBL1133166, “Cyclin-dependent kinase inhibitors: useful targets in cell cycle regulation” (J Med Chem, 2000)
The source made the active and inactive calls. The rule behind the calls is not given here.

Legend:
[1] = target: Cyclin-dependent kinase 2/cyclin A (Homo sapiens) (UniProt P24941+P20248+P78396); assay: Inhibition of Cyclin-dependent kinase 2-cyclin A; type: protein-complex assay
[2] = target: T1, Cyclin-dependent kinase 4/cyclin D (Homo sapiens) (UniProt P11802+P24385+P30281+P30279); assay: Inhibition of Cyclin-dependent kinase 4-cyclin D; type: protein-complex assay
T1 sequence (P11802 whole entry, looked up): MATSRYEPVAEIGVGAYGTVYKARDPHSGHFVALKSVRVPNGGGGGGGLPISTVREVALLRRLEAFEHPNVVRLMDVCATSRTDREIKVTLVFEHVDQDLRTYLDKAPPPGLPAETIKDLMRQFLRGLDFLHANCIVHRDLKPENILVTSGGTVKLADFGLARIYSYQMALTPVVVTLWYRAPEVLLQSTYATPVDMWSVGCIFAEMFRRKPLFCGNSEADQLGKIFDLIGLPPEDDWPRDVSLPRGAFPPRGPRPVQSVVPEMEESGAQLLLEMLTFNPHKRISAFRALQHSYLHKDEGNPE
T1 sequence (P24385 whole entry, looked up): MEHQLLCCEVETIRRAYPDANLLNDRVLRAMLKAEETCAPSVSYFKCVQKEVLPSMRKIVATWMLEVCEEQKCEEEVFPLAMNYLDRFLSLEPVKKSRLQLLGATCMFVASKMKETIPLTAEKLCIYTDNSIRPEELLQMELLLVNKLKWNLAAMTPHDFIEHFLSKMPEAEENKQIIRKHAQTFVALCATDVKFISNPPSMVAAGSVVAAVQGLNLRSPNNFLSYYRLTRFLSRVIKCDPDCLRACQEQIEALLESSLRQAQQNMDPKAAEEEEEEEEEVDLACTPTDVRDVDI
T1 sequence (P30279 whole entry, looked up): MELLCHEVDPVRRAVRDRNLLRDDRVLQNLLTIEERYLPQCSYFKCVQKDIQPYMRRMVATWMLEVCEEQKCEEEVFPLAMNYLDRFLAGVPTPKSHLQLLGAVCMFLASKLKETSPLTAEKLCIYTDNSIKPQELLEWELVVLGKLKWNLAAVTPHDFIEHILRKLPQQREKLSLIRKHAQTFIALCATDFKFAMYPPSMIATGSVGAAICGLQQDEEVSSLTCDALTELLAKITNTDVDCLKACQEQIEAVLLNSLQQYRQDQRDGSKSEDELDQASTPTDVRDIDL
T1 sequence (P30281 whole entry, looked up): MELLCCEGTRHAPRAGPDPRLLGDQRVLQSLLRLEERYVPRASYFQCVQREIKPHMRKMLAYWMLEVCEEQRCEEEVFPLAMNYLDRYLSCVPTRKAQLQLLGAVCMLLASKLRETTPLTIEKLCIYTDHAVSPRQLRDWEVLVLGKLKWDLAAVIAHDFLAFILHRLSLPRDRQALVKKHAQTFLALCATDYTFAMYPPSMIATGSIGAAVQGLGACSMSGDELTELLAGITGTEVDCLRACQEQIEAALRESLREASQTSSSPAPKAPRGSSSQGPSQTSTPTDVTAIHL

[3] = target: Cyclin-dependent kinase 1/cyclin B (Homo sapiens) (UniProt P06493+P14635+Q8WWL7+O95067); details: Asteroidea
Description: Inhibition of Cyclin-dependent kinase 1-cyclin B

[4] = target: Cyclin-dependent kinase 2/cyclin E (Homo sapiens) (UniProt P24864+P24941+O96020); details: Asteroidea
Description: Inhibition of Cyclin-dependent kinase 2-cyclin E

[5] = target: T1, Cyclin-dependent kinase 4/cyclin D (Homo sapiens); assay: Inhibition of Cyclin-dependent kinase 4-cyclin D (Inactive); type: protein-complex assay; details: Asteroidea

Structure (SMILES)	ID50 [1] [nM]	ID50 [3] [nM]	ID50 [4] [nM]	other results
CCn1cnc2c(N)nc(N(c3cccc(Cl)c3)[C@@H]3CCCC[C@@H]3N)nc21		16	9	ID50 [2]: 29 nM
Cn1cnc2c(NCc3ccccc3)nc(NCCO)nc21				IA [5]: inactive
CNS(=O)(=O)c1ccc(/N=N/c2c(O)[nH]c3ccc4ncsc4c23)cc1			3.5	
CNS(=O)(=O)Cc1ccc(/N=N/c2c(O)[nH]c3ccc4ncccc4c23)cc1			6.2	
OCCCNc1cc(-c2ccnc(Nc3cccc(Cl)c3)n2)ccn1		20	50	
CC(C)[C@H](CO)Nc1nc(Nc2ccc(C(=O)O)c(Cl)c2)c2ncn(C(C)C)c2n1	6			

Further lines, with some results ahead:

ID50 [1] [nM]	ID50 [3] [nM]	ID50 [4] [nM]	Structure (SMILES)	other results
100			CN1CC[C@H](c2c(O)cc(O)c3c(=O)cc(-c4ccccc4Cl)oc23)[C@H](O)C1	
	35		O=C1Cc2c([nH]c3ccc(Br)cc23)-c2ccccc2N1	
58	675	270	CC(C)n1c(=O)ccc2ncc(Nc3ccc(N4CCN(C)CC4)cc3)cc21	ID50 [2]: 45 nM
